This data set concerns the target ATP-dependent translocase ABCB1 (Homo sapiens, UniProt P08183). The data set can be described thus: TP_TRANSPORTER: Western in vivo, quantitative immunohistochemistry. It is filed as functional, organism-based.

Sequence of ATP-dependent translocase ABCB1 (P08183 whole entry): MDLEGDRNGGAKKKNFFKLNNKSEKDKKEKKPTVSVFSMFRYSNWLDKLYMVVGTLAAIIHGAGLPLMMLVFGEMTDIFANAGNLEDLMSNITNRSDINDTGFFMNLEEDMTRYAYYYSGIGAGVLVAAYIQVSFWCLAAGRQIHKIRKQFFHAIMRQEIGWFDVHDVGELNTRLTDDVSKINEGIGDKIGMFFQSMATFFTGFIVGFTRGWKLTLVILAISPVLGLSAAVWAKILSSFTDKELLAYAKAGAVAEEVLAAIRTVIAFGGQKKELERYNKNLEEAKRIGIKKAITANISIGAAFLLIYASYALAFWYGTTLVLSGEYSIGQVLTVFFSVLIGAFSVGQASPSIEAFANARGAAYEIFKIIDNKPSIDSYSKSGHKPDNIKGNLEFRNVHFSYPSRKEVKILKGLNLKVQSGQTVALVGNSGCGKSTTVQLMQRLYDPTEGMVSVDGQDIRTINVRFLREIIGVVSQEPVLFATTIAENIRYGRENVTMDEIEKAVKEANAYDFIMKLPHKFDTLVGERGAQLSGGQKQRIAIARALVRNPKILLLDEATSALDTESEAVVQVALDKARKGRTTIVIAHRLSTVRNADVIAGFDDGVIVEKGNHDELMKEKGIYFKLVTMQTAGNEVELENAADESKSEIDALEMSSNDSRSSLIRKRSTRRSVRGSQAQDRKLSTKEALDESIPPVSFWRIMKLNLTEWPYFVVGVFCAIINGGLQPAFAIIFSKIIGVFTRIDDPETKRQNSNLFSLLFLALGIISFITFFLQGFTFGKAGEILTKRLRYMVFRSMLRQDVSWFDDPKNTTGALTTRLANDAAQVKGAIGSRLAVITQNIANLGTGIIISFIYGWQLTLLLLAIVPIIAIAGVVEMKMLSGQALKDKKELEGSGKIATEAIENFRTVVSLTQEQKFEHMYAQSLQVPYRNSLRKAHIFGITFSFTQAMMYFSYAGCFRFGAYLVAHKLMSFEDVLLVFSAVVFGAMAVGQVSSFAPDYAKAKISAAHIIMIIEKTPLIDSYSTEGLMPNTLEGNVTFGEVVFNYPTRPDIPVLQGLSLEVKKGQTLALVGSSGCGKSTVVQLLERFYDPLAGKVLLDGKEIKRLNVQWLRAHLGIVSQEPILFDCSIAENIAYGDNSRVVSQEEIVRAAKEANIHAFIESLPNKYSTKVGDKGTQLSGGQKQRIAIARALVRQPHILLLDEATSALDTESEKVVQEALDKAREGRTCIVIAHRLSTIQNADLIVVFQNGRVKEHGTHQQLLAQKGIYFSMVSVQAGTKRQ

`CO[C@H]1/C=C/O[C@@]2(C)Oc3c(C)c(O)c4c(O)c(c(/C=N/N5CCN(C)CC5)c(O)c4c3C2=O)NC(=O)/C(C)=C\C=C\[C@H](C)[C@H](O)[C@@H](C)[C@@H](O)[C@@H](C)[C@H](OC(C)=O)[C@@H]1C` [RIFAMPIN]: the Activity result is “inducer [+]”.

The values are drawn from ChEMBL document CHEMBL2074195, “The role of intestinal P-glycoprotein in the interaction of digoxin and rifampin” (J Clin Invest, 1999).
